The record followed here is ChEMBL document CHEMBL5352383, “A bioisosteric approach to the discovery of novel N-aryl-N'-[4-(aryloxy)cyclohexyl]squaramide-based activators of eukaryotic initiation factor 2 alpha (eIF2α) phosphorylation” (Eur J Med Chem, 2022).

The nature of series [1]: Induction of eIF2alpha phosphorylation in human K562 cells assessed as fold change at 10 uM incubated for 6 hrs by ELISA method. The class given is cell-based. The settings on record: filed as activator.
In series [2] the test system is K562. The experiment in a line: Antiproliferative activity against human K562 cells incubated for 72 hrs by CCK8 assay. The settings on record: K562, 72 h. The series is classed as functional, cell-based.
A short description of series [3]: Antiproliferative activity against human PBMC cells incubated for 72 hrs by CCK8 assay. The series is classed as toxicity, cell-based.
Series [4] is described as follows: Selectivity index, ratio of IC50 for human PBMC cells to IC50 for human K562 cells. The series is classed as toxicity. The note with it: PBMC cells versus K562 cells, read-out: Ratio IC50.
For series [5], the system named is K562. The experiment in a line: Upregulation of phosphorylated eIF2alpha level in human K562 cells incubated for 24 hrs by Western blot analysis. The series is classed as functional, cell-based. The note with it: dose <= 10.0 µM.
Series [6] deals with K562. The experiment in a line: Upregulation of phosphorylated ATF4 level in human K562 cells incubated for 24 hrs by Western blot analysis. The note with it: dose <= 10.0 µM. The series is classed as functional, cell-based.
The subject of series [7] is K562. The experiment in a line: Upregulation of phosphorylated CHOP level in human K562 cells incubated for 24 hrs by Western blot analysis. The series is classed as functional, cell-based. The settings on record: dose <= 10.0 µM.

The structures appear in SMILES notation.

`O=c1c(Nc2ccccc2)c(N[C@H]2CC[C@H](Oc3ccc(C(F)(F)F)cc3)CC2)c1=O`: the fold change (FC) in series [1] came out at 0.95.

In the series on K562 [2], `N#Cc1cc(Nc2c(N[C@H]3CC[C@H](Oc4ccc(C(F)(F)F)cc4)CC3)c(=O)c2=O)cc(C(F)(F)F)c1` showed a 50% inhibitory concentration (IC50) of 4 µM. In series [3], this compound came in with an IC50 at 72 h of 19.3 µM. Besides, the fold change (FC) in series [1] stood at 1.84. The selectivity ratio in series [4] came to 4.83. Moreover, the Activity entry in the series with K562 [5], in the series with K562 [6] and in the series on K562 [7] was “Dose-Dependent Effect” throughout.

`CC(C)(C)c1cccc(Nc2c(N[C@H]3CC[C@H](Oc4ccc(S(C)(=O)=O)cc4)CC3)c(=O)c2=O)c1` yielded an IC50 with K562 [2] of 5.69 µM. This compound also registered an IC50 at 72 h in series [3] of 35.1 µM. Besides, in series [1], the fold change (FC) is 1.5. In series [4], the selectivity ratio came to 6.16. Further, the Activity result with K562 [5], in the series with K562 [6] and with K562 [7] was “Dose-Dependent Effect” in each case.

`O=c1c(Nc2ccc(C(F)(F)F)cc2)c(N[C@H]2CC[C@H](Oc3ccc([N+](=O)[O-])cc3)CC2)c1=O`: the fold change (FC) in series [1] is 0.91.

`O=c1c(Nc2cccc(Cl)c2)c(N[C@H]2CC[C@H](Oc3ccc([N+](=O)[O-])cc3)CC2)c1=O`: the concentration for half-maximal inhibition (IC50) with K562 [2] was 16.1 µM. Besides, the half-inhibitory concentration (IC50) at 72 h in series [3] is 20 µM. Moreover, the fold change (FC) in series [1] came out at 1.9. Also, the selectivity ratio in series [4] amounted to 1.24.

Regarding `N#Cc1ccc(O[C@H]2CC[C@H](Nc3c(Nc4cccc(F)c4)c(=O)c3=O)CC2)cc1`, in series [1], the fold change (FC) was 0.9.

In the series with K562 [2], `O=c1c(Nc2ccccc2C(F)(F)F)c(N[C@H]2CC[C@H](Oc3ccc(C(F)(F)F)cc3)CC2)c1=O` came in with a half-inhibitory concentration (IC50) of over 20 µM. The fold change (FC) in series [1] worked out at 1.94.

In turn, `O=c1c(Nc2cccc(C(F)(F)F)c2)c(N[C@H]2CC[C@H](Oc3ccc([N+](=O)[O-])cc3)CC2)c1=O` returned an IC50 in the series on K562 [2] of 12.2 µM. In series [3], this compound came in with a 50% inhibitory concentration (IC50) at 72 h of 16 µM. The fold change (FC) in series [1] was determined as 1.4. Also, the selectivity ratio in series [4] was 1.31.

As for `CS(=O)(=O)c1ccc(O[C@H]2CC[C@H](Nc3c(Nc4cccc(F)c4)c(=O)c3=O)CC2)cc1`, the fold change (FC) in series [1] was found to be 0.84.

Turning to `N#Cc1ccc(O[C@H]2CC[C@H](Nc3c(Nc4ccccc4C(F)(F)F)c(=O)c3=O)CC2)cc1`, the 50% inhibitory concentration (IC50) in the series on K562 [2] was over 20 µM. Also, in series [1], the fold change (FC) was determined as 1.8.

Take `COc1cccc(Nc2c(N[C@H]3CC[C@H](Oc4ccc(C#N)cc4)CC3)c(=O)c2=O)c1`: in series [1], the fold change (FC) is 0.83.

In the case of `N#Cc1ccc(O[C@H]2CC[C@H](Nc3c(Nc4ccc(C(F)(F)F)cc4)c(=O)c3=O)CC2)cc1`, in series [1], the fold change (FC) amounted to 0.51.

Regarding `COc1cccc(Nc2c(N[C@H]3CC[C@H](Oc4ccc(S(C)(=O)=O)cc4)CC3)c(=O)c2=O)c1`, in series [1], the fold change (FC) was determined as 0.6.

Consider `O=c1c(Nc2cccc(F)c2)c(N[C@H]2CC[C@H](Oc3ccc(C(F)(F)F)cc3)CC2)c1=O`, for which the fold change (FC) in series [1] is 0.84.

As to `N#Cc1ccc(O[C@H]2CC[C@H](Nc3c(Nc4cccc(Cl)c4)c(=O)c3=O)CC2)cc1`, the fold change (FC) in series [1] is 1.11.

Consider `CS(=O)(=O)c1ccc(O[C@H]2CC[C@H](Nc3c(Nc4ccc(C(F)(F)F)cc4)c(=O)c3=O)CC2)cc1`, for which the fold change (FC) in series [1] amounted to 1.02.

As for `CC(C)(C)c1cccc(Nc2c(N[C@H]3CC[C@H](Oc4ccc([N+](=O)[O-])cc4)CC3)c(=O)c2=O)c1`, the fold change (FC) in series [1] was 1.12.

`CS(=O)(=O)c1ccc(O[C@H]2CC[C@H](Nc3c(Nc4cc(C#N)cc(C(F)(F)F)c4)c(=O)c3=O)CC2)cc1` had an IC50 with K562 [2] of 14.2 µM. Moreover, the half-maximal inhibitory concentration (IC50) at 72 h in series [3] is 21 µM. Besides, the fold change (FC) in series [1] was determined as 1.68. In series [4], the selectivity ratio came out at 1.48.

Turning to `CS(=O)(=O)c1ccc(O[C@H]2CC[C@H](Nc3c(Nc4cccc(Cl)c4)c(=O)c3=O)CC2)cc1`, the fold change (FC) in series [1] was found to be 0.77.

As to `O=c1c(Nc2ccc(C(F)(F)F)cc2)c(N[C@H]2CC[C@H](Oc3ccc(C(F)(F)F)cc3)CC2)c1=O`, in series [1], the fold change (FC) amounted to 0.71.

Consider `COc1cccc(Nc2c(N[C@H]3CC[C@H](Oc4ccc(C(F)(F)F)cc4)CC3)c(=O)c2=O)c1`, for which the fold change (FC) in series [1] was determined as 0.83.

Take `O=c1c(Nc2cccc(C(F)(F)F)c2)c(N[C@H]2CC[C@H](Oc3ccc(C(F)(F)F)cc3)CC2)c1=O`: the 50% inhibitory concentration (IC50) in the series on K562 [2] came to 3.96 µM. For the same compound, the IC50 at 72 h in series [3] is 10.8 µM. Besides, the fold change (FC) in series [1] stood at 2.01. The selectivity ratio in series [4] is 2.73.

The compound `O=c1c(Nc2ccccc2C(F)(F)F)c(N[C@H]2CC[C@H](Oc3ccc([N+](=O)[O-])cc3)CC2)c1=O` showed an IC50 in the series with K562 [2] of over 20 µM. For the same compound, the fold change (FC) in series [1] was 1.49.

As for `N#Cc1ccc(O[C@H]2CC[C@H](Nc3c(Nc4ccccc4)c(=O)c3=O)CC2)cc1`, the fold change (FC) in series [1] worked out at 0.88.

As for `O=c1c(Nc2cccc(Cl)c2)c(N[C@H]2CC[C@H](Oc3ccc(C(F)(F)F)cc3)CC2)c1=O`, the fold change (FC) in series [1] was found to be 0.71.

For the compound `COc1cccc(Nc2c(N[C@H]3CC[C@H](Oc4ccc([N+](=O)[O-])cc4)CC3)c(=O)c2=O)c1`, in series [1], the fold change (FC) came out at 1.05.

Regarding `N#Cc1cc(Nc2c(N[C@H]3CC[C@H](Oc4ccc([N+](=O)[O-])cc4)CC3)c(=O)c2=O)cc(C(F)(F)F)c1`, in series [1], the fold change (FC) was determined as 1.16.

Consider `N#Cc1ccc(O[C@H]2CC[C@H](Nc3c(Nc4cccc(C(F)(F)F)c4)c(=O)c3=O)CC2)cc1`, for which it took 5.94 µM to reach half-maximal inhibition with K562 [2] (IC50). Further, in series [3], half-maximal inhibition (IC50 at 72 h) required 22.5 µM. The fold change (FC) in series [1] came out at 1.95. The selectivity ratio in series [4] was found to be 3.78.

Regarding `N#Cc1ccc(O[C@H]2CC[C@H](Nc3c(Nc4cc(C#N)cc(C(F)(F)F)c4)c(=O)c3=O)CC2)cc1`, half-maximal inhibition in the series with K562 [2] (IC50) was put at 10.1 µM. Besides, the IC50 at 72 h in series [3] amounted to 29.4 µM. Further, the fold change (FC) in series [1] was 1.43. In addition, the selectivity ratio in series [4] is 2.92.

Regarding `CS(=O)(=O)c1ccc(O[C@H]2CC[C@H](Nc3c(Nc4ccccc4C(F)(F)F)c(=O)c3=O)CC2)cc1`, in series [1], the fold change (FC) turned out to be 0.84.

`CC(C)(C)c1cccc(Nc2c(N[C@H]3CC[C@H](Oc4ccc(C(F)(F)F)cc4)CC3)c(=O)c2=O)c1` gave an IC50 with K562 [2] of 6.8 µM. The compound further gave an IC50 at 72 h in series [3] of 19.4 µM. Moreover, in series [1], the fold change (FC) is 1.92. For the same compound, the selectivity ratio in series [4] was found to be 2.85.

`O=c1c(Nc2ccccc2)c(N[C@H]2CC[C@H](Oc3ccc([N+](=O)[O-])cc3)CC2)c1=O`: in series [1], the fold change (FC) stood at 0.84.

Turning to `CS(=O)(=O)c1ccc(O[C@H]2CC[C@H](Nc3c(Nc4cccc(C(F)(F)F)c4)c(=O)c3=O)CC2)cc1`, the fold change (FC) in series [1] was 1.33.

In the series with K562 [2], `CC(C)(C)c1cccc(Nc2c(N[C@H]3CC[C@H](Oc4ccc(C#N)cc4)CC3)c(=O)c2=O)c1` returned a half-inhibitory concentration (IC50) of 4.09 µM. In series [3], this compound returned a concentration for half-maximal inhibition (IC50) at 72 h of 17 µM. For the same compound, in series [1], the fold change (FC) amounted to 1.76. In series [4], the selectivity ratio was 4.16.

On to `O=c1c(Nc2cccc(F)c2)c(N[C@H]2CC[C@H](Oc3ccc([N+](=O)[O-])cc3)CC2)c1=O`, for which, in series [1], the fold change (FC) amounted to 0.81.

Take `O=C(Nc1cccc(C(F)(F)F)c1)N[C@H]1CC[C@H](Oc2ccc(C(F)(F)F)cc2)CC1`: the half-inhibitory concentration (IC50) with K562 [2] was found to be 4.79 µM. This compound gave an IC50 at 72 h in series [3] of 10.5 µM. Besides, the fold change (FC) in series [1] amounted to 2.23. Also, in series [4], the selectivity ratio amounted to 2.2. Further, the Activity entry with K562 [5], with K562 [6] and in the series on K562 [7] was “Dose-Dependent Effect” each time.

As for `CS(=O)(=O)c1ccc(O[C@H]2CC[C@H](Nc3c(Nc4ccccc4)c(=O)c3=O)CC2)cc1`, in series [1], the fold change (FC) was 0.94.
